Measured values: patent publication US7211576B2, “Diaminothiazoles” (Hoffmann-La Roche Inc., priority 2004, dated 2007)

Experiments:
[1] = biological target: human cyclin D1-CDK4 (Homo sapiens, UniProt P11802); experiment: FlashPlate kinase assay, cyclin D1-CDK4; assay type: biochemical; conditions: Rb protein substrate, 1 μM ATP, 33P-ATP, 30 minutes room temperature; read-out: CDK4 IC50
[2] = biological target: human cyclin E-CDK2 (Homo sapiens, UniProt P24941); experiment: FlashPlate kinase assay, cyclin E-CDK2; assay type: biochemical; conditions: Rb protein substrate, 1 μM ATP, 33P-ATP, 30 minutes room temperature
Method: To determine inhibition of Cdk4, Cdk2 and Cdk1 activity, kinase assays were conducted using FlashPlate™ assays (NEN™-Life Science Products). FlashPlate assays were performed using recombinant human cyclin B-CDK1, human cyclin E-CDK2 or human cyclin D1-CDK4 complexes. GST-cyclinE (GST-cycE), CDK2, GST-cyclinB (GST-cycB), CDK1, GST-CDK4 and cyclin D1 (cycD1) cDNA clones in baculovirus vectors were provided by Dr. W. Harper at the Baylor College of Medicine, Houston, Tex. Proteins were co-expressed in High Five™ insect cells and the complex was purified on glutathione Sepharose resin (Pharmacia, Piscataway, N.J.) as previously described (Harper, J. W. et al. Cell 1993, 75, 805–816). A 6×-Histidine tagged truncated form of retinoblastoma (Rb) protein (amino acid 386–928) was used as the substrate for the cycD1-CDK4, cycB-CDK1 and the cycE-CDK2 assays (the expression plasmid was provided by Dr. Veronica Sullivan, Department of Molecular Virology, Roche Research Centre, Welwyn Garden City, United Kingdom). The Rb protein is a natural substrate for phosphorylation by CDK4, CDK2 and CDK1 (see Herwig and Strauss Eur. J. Biochem. Vol. 246 (1997) pp. 581–601 and the references cited therein).
The expression of the 62Kd protein was under the control of an IPTG inducible promoter in an M15 E. coli strain. Cells were lysed by sonication and purification was carried out by binding lysates at pH 8.0 to a Ni-chelated agarose column pretreated with 1 mM imidazole. The resin was then washed several times with incrementally decreasing pH buffers to pH 6.0, and eluted with 500 mM imidazole. Eluted protein was dialysed against 20 mM HEPES pH 7.5, 30% glycerol, 200 mM NaCl, and 1 mM DTT. Purified Rb fusion protein stocks were quantitated for protein concentration, aliquoted, and stored at −70° C.
For all three kinase assays reported herein, 96-well FlashPlates were coated with Rb protein at 10 μg/ml, using 100 μl per well. Plates were incubated at 4° C. overnight or at room temperature for 3 hours on a shaker. To control for nonspecific phosphorylation, one row of wells was coated with 100 μl/well coating buffer (20 mM HEPES, 0.2 M NaCl). Plates were then washed twice with wash buffer (0.01% Tween 20 in phosphate-buffered saline). Compounds to be tested (“test compounds”) were added to the wells at 5× final concentration. Reactions were initiated by immediate addition of 40 μl reaction mix (25 mM HEPES, 20 mM MgCl2, 0.002% Tween 20, 2 mM DTT, 1 μM ATP, 4 nM ^33P-ATP) and a sufficient amount of enzyme to give counts that were at least 10-fold above background. Plates were incubated at room temperature on a shaker for 30 minutes. Plates were washed four times with the wash buffer, sealed, and counted on the TopCount scintillation counter (Packard Instrument Co., Downers Grove, Ill.]. The percent inhibition of Rb phosphorylation, which is a measure of the inhibition of CDK activity, was determined according to the following formula:
[formula] where “test compound” refers to the average counts per minute of the test duplicates, “nonspecific” refers to the average counts per minute when no CyclinD/Cdk4, etc., was added, and “total” refers to the average counts per minute when no compound was added. The IC50 value is the concentration of test compound that reduces by 50% the protein-kinase induced incorporation of the radiolabel under the test conditions described.

[3] = biological target: human cyclin B-CDK1 (Homo sapiens, UniProt P06493); experiment: FlashPlate kinase assay, cyclin B-CDK1; assay type: biochemical; conditions: Rb protein substrate, 1 μM ATP, 33P-ATP, 30 minutes room temperature
[4] = tested on: HCT116, a colorectal carcinoma cell line; experiment: Tetrazolium dye (MTT) proliferation assay; assay type: cell-based; conditions: Homo sapiens, HCT-116; HCT116 cells, inhibition of cell proliferation
Method: Proliferation was evaluated by the tetrazolium dye assay according to the procedure of Denizot and Lang (Denizot, F. and Lang, R. J Immunol Methods 1986, 89, 271–277). The cell line used was HCT116, a colorectal carcinoma cell line obtained from the American Type Cell Culture Collection (ATCC; Rockville, Md.). The cells were grown in McCoy's 5A medium supplemented with 10% FCS and L-glutamine.
Cells were plated at the appropriate seeding density to give logarithmic growth over the course of the assay in a 96-well tissue culture plate. Plates were incubated overnight at 37° C. in a humidified incubator with 5% CO2. The next day, test compounds were serially diluted to four times the final concentration in the appropriate medium containing 1.2% DMSO. One-fourth final volume of each dilution was added in duplicate to the plates containing cells. The same volume of 1.2% DMSO in medium was added to a row of “control wells” such that the final concentration of DMSO in each well was 0.3%. Wells to which no cells were added served as the “blank.” Wells to which no inhibitor was added served as “no inhibitor control.” The plates were) returned to the incubator, and at set time points (determined by their growth curves) plates were analyzed as described below.
3-(4,5-dimethylthiazole-2-yl)-2,5-diphenyl-2H-tetrazolium bromide (thiazolyl blue; MTT; Sigma) was added to each well to yield a final concentration of 1 mg/ml. Plates were returned to the incubator for 2.5–3 hours at 37° C. The MTT-containing medium was removed and the resulting formazan metabolite was solubilized in 100% ethanol with shaking for 15 minutes at room temperature. Absorbance readings were taken in a microtiter plate reader (Dynatech and Molecular Devices plate readers were used interchangeably) at a wavelength of 570 nm with a 650 nm reference. Percent inhibition (% INH) is calculated by subtracting the absorbance of the blank well from all wells, then subtracting the ratio of the average absorbance of each test duplicate (SAVE) by the average of the controls (CAVE) from 1.00. The final number is then multiplied by 100 (% INH=(1.00−SAVE/CAVE)×100). The concentration at which 50% inhibition of cell proliferation is obtained (the IC50) is determined from the linear regression of a plot of the logarithm of the concentration versus percent inhibition.

Chain of human cyclin D1-CDK4 (P11802 whole entry): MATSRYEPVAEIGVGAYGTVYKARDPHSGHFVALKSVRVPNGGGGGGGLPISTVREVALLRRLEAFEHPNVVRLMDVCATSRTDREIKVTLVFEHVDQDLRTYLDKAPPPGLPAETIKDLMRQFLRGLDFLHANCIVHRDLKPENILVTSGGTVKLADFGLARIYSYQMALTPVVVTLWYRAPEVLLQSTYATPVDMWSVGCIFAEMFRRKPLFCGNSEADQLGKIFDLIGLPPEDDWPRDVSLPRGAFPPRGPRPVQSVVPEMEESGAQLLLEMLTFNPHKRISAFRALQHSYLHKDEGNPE
Chain of human cyclin D1-CDK4 (P24385 whole entry partner): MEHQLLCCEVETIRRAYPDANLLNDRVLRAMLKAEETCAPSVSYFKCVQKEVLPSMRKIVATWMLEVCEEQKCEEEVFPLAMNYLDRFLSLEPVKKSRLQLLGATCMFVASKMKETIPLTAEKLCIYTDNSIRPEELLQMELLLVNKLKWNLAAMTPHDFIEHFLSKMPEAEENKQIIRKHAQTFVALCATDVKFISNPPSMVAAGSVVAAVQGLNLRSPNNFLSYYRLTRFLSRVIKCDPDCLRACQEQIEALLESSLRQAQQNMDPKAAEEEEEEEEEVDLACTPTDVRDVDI
Chain of human cyclin B-CDK1 (P06493 whole entry): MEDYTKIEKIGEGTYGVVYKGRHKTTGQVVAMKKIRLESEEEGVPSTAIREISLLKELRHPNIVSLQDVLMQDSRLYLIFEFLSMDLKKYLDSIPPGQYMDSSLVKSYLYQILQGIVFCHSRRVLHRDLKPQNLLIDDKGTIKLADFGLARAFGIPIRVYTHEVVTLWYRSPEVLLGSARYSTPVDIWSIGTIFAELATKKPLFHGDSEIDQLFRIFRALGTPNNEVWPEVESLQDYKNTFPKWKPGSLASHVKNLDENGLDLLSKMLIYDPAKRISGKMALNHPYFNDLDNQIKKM
Chain of human cyclin B-CDK1 (P14635 whole entry partner): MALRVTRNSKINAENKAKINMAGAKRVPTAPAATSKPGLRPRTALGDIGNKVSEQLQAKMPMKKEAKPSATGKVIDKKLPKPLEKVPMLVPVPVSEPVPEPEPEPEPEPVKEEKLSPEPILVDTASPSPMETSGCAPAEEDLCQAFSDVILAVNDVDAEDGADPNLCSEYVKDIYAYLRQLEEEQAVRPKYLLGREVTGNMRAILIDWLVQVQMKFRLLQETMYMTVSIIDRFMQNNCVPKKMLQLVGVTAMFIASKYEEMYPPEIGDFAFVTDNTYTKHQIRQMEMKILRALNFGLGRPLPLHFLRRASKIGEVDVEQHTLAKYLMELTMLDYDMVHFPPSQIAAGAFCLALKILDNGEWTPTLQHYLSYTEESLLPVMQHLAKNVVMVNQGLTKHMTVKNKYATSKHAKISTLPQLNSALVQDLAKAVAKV

Row | SMILES | IC50 [1] | IC50 [2] | IC50 [3] | IC50 [4]
1 | COc1cccc(C(=O)c2sc(Nc3ccc(N4CCC(N5CCCCC5)CC4)cc3)nc2N)c1 [Example 34, [4-Amino-2-(4-[1,4′]bipiperidinyl-1′-yl-phenylamino)-thiazol-5-yl]-(3-methoxy-phenyl)-methanone] | 3640 nM | 952 nM | 1680 nM | 8 nM
2 | COc1ccc(C(=O)c2sc(Nc3ccc(N4CCC(N5CCCCC5)CC4)cc3)nc2N)cc1F [Example 31, [4-Amino-2-(4-[1,4′]bipiperidinyl-1′-yl-phenylamino)-thiazol-5-yl]-(3-fluoro-4-methoxy-phenyl)-methanone] | 28 nM | 4160 nM | 1720 nM | 3290 nM
3 | N#Cc1cccc(C(=O)c2sc(Nc3ccc(N4CCC(N5CCCC5)CC4)cc3)nc2N)c1 [Example 72, 3-{4-Amino-2-[4-(4-pyrrolidin-1-yl-piperidin-1-yl)-phenylamino]-thiazole-5-carbonyl}-benzonitrile] | 17 nM | 2050 nM | 702 nM | 2500 nM
4 | Nc1nc(Nc2ccc(N3CCC(N4CCCC4)CC3)cc2)sc1C(=O)c1ccc2c(c1)OCCO2 [Example 26, {4-Amino-2-[4-(4-pyrrolidin-1-yl-piperidin-1-yl)-phenylamino]-thiazol-5-yl}-(2,3-dihydro-benzo[1,4]dioxin-6-yl)-methanone] | 5 nM | 4250 nM | 1060 nM | 2800 nM
5 | COc1cccc(C(=O)c2sc(Nc3ccc(N4CCC(N(C)C)CC4)cc3)nc2N)c1 [Example 45, {4-Amino-2-[4-(4-dimethylamino-piperidin-1-yl)-phenylamino]-thiazol-5-yl}-(3-methoxy-phenyl)-methanone] | 5 nM | 5160 nM | 2440 nM | 2460 nM
6 | Nc1nc(Nc2ccc(N3CCC(N4CCCC4)CC3)cc2)sc1C(=O)c1cccc(C2CC2)c1 [Example 119, {4-Amino-2-[4-(4-pyrrolidin-1-yl-piperidin-1-yl)-phenylamino]-thiazol-5-yl}-(3-cyclopropyl-phenyl)-methanone] | 11 nM | 3240 nM | 1530 nM | 3170 nM
7 | COc1ccc(C(=O)c2sc(Nc3ccc(N4CCC(N5CCCCC5)CC4)cc3)nc2N)cc1[N+](=O)[O-] [Example 108, [4-Amino-2-(4-[1,4′]bipiperidinyl-1′-yl-phenylamino)-thiazol-5-yl]-(4-methoxy-3-nitro-phenyl)-methanone] | 34 nM | 2610 nM | 1290 nM | 996 nM
8 | Nc1nc(Nc2ccc(N3CCC(N4CCCC4)CC3)cc2)sc1C(=O)c1cccc(F)c1 [Example 24, {4-Amino-2-[4-(4-pyrrolidin-1-yl-piperidin-1-yl)-phenylamino]-thiazol-5-yl}-(3-fluoro-phenyl)-methanone] | 32 nM | 860 nM | 270 nM | 1220 nM
9 | Nc1nc(Nc2ccc(N3CCC(N4CCCC(O)C4)CC3)cc2)sc1C(=O)c1ccc2c(c1)OCO2 (stereo not shown) [Example 37, {4-Amino-2-[4-(3-hydroxy-[1,4′]bipiperidinyl-1′-yl)-phenylamino]-thiazol-5-yl}-benzo[1,3]dioxol-5-yl-methanone] | 3520 nM | 520 nM | 1630 nM | 100 nM
10 | N#Cc1cccc(C(=O)c2sc(Nc3ccc(N4CCC(N5CCCC(O)C5)CC4)cc3)nc2N)c1 (stereo not shown) [Example 80, 3-{4-Amino-2-[4-(3-hydroxy-[1,4′]bipiperidinyl-1′-yl)-phenylamino]-thiazole-5-carbonyl}-benzonitrile] | 17 nM | 2580 nM | 1370 nM | 3490 nM
11 | Nc1nc(Nc2ccc(N3CCC(N4CCCCC4)CC3)cc2)sc1C(=O)c1ccc2c(c1)OCCO2 [Example 33, [4-Amino-2-(4-[1,4′]bipiperidinyl-1′-yl-phenylamino)-thiazol-5-yl]-(2,3-dihydro-benzo[1,4]dioxin-6-yl)-methanone] | 9 nM | 4950 nM | 950 nM | 1680 nM

The remaining lines, values ahead:

Row | IC50 [1] | IC50 [2] | IC50 [3] | IC50 [4] | SMILES
12 | 17 nM | 3490 nM | 1060 nM | 1850 nM | COc1cccc(C(=O)c2sc(Nc3ccc(N4CCC(N5CCCC5)CC4)cc3)nc2N)c1 [Example 27]
13 | 38 nM | 2390 nM | 1000 nM | 3680 nM | COc1ccc(C(=O)c2sc(Nc3ccc(N4CCC(N5CCCC5)CC4)cc3)nc2N)cc1[N+](=O)[O-] [Example 107, {4-Amino-2-[4-(4-pyrrolidin-1-yl-piperidin-1-yl)-phenylamino]-thiazol-5-yl}-(4-methoxy-3-nitro-phenyl)-methanone]
14 | 7 nM | 1670 nM | 580 nM | 2820 nM | Nc1nc(Nc2ccc(N3CCC(N4CCCC4)CC3)cc2)sc1C(=O)c1cccc([N+](=O)[O-])c1 [Example 90, {4-Amino-2-[4-(4-pyrrolidin-1-yl-piperidin-1-yl)-phenylamino]-thiazol-5-yl}-(3-nitro-phenyl)-methanone]
15 | 66 nM | 3270 nM | 1860 nM | 1020 nM | CCNC1CCN(c2ccc(Nc3nc(N)c(C(=O)c4ccc(OC)c(F)c4)s3)cc2)C1 (stereo not shown) [Example 133, {4-Amino-2-[4-(3-ethylamino-pyrrolidin-1-yl)-phenylamino]-thiazol-5-yl}-(3-fluoro-4-methoxy-phenyl)-methanone]
16 | 9 nM | 989 nM | 3220 nM | 1310 nM | CCc1cccc(C(=O)c2sc(Nc3ccc(N4CCC(N5CCCCC5)CC4)cc3)nc2N)c1 [Example 117, [4-Amino-2-(4-[1,4′]bipiperidinyl-1′-yl-phenylamino)-thiazol-5-yl]-(3-ethyl-phenyl)-methanone]
